Assay results as given in patent publication US10376520B2, “Methods for the treatment of cardiovascular disorders” (Galapagos NV, priority 2015, dated 2019).

System: RA patients
Test: [HDL] determination, Study 1 (RA patients, add-on to MTX)
Type: in vivo, human
Method: Double-blind, placebo-controlled add on study in subjects with moderately to severely active RA who have an inadequate response to methotrexate (MTX) (oral or parenteral).
595 subjects randomized to one of 6 dose regimens of Compound 1 (dosed as a [Compound 1:HCl:3H2O]) (3 dose levels administered either once or twice daily) or placebo on top of each subject's stable dose of MTX.
Compound 1 (dosed as a [Compound 1:HCl:3H2O]) is dosed for twelve weeks once daily (q.d.) (50 mg, 100 mg or 200 mg) or twice daily (b.i.d.) (25 mg, 50 mg or 100 mg); or placebo.
At Week 12, the subjects on placebo who have not achieved 20% improvement in swollen joint count (SJC66) and tender joint count (TJC68) are re-randomized automatically to receive Compound 1 (dosed as a [Compound 1:HCl:3H2O]) either at 100 mg q.d. or 50 mg b.i.d. doses in a blinded fashion; subjects on 50 mg q.d. who have not achieved 20% improvement in SJC66 and TJC68 will be assigned to 100 mg q.d. and subjects on 25 mg b.i.d. that have not achieved a 20% improvement in SJC66 and TJC68 will be assigned to 50 mg b.i.d. Subjects who switch treatment at week 12 are handled as if they discontinued at week 12 for the purpose of statistical analysis, whereas subjects in the other groups will maintain their randomized treatment until Week 24.
This assay relies on a homogeneous enzymatic colorimetric test. In the presence of magnesium ions, dextran sulfate selectively forms water-soluble complexes with LDL, VLDL and chylomicrons which are resistant to PEG-modified enzymes.
The cholesterol concentration of [HDL]-cholesterol is determined enzymatically by cholesterol esterase and cholesterol oxidase coupled with PEG to the amino groups (approx. 40%).
In the presence of peroxidase, the hydrogen peroxide generated reacts with 4-amino-antipyrine and Sodium N-(2-hydroxy-3-sulfopropyl)-3,5-dimethoxyaniline (HSDA) to form a purple-blue dye. The color intensity of this dye is directly proportional to the cholesterol concentration and is measured photometrically.
Human serum and plasma samples [HDL] determination was done on a Roche/Hitachi Cobas c 701/702 system which automatically calculate the analyte concentration of each sample. Samples containing precipitates are centrifuged before performing the assay.

[1] = continued 50 mg q.d. (N = 63), week 4
[2] = continued 50 mg q.d. (N = 63), week 8
[3] = continued 50 mg q.d. (N = 63), week 12
[4] = continued 50 mg q.d. (N = 63), week 16
[5] = continued 50 mg q.d. (N = 63), week 20
[6] = continued 50 mg q.d. (N = 63), week 24
[7] = continued 100 mg b.i.d. (N = 84), week 1
[8] = continued 100 mg b.i.d. (N = 84), week 2
[9] = continued 100 mg b.i.d. (N = 84), week 4
[10] = continued 100 mg b.i.d. (N = 84), week 8
[11] = continued 100 mg b.i.d. (N = 84), week 12
[12] = continued 100 mg b.i.d. (N = 84), week 16
[13] = continued 100 mg b.i.d. (N = 84), week 20
[14] = continued 100 mg b.i.d. (N = 84), week 24
[15] = continued 100 mg q.d. (N = 85), week 1
[16] = continued 100 mg q.d. (N = 85), week 2
[17] = continued 100 mg q.d. (N = 85), week 4
[18] = continued 100 mg q.d. (N = 85), week 8
[19] = continued 100 mg q.d. (N = 85), week 12
[20] = continued 100 mg q.d. (N = 85), week 16
[21] = continued 100 mg q.d. (N = 85), week 20
[22] = continued 100 mg q.d. (N = 85), week 24
[23] = continued 200 mg q.d. (N = 86), week 1
[24] = continued 200 mg q.d. (N = 86), week 2

## O=C(Nc1nc2cccc(-c3ccc(CN4CCS(=O)(=O)CC4)cc3)n2n1)C1CC1 [Compound 1, cyclopropanecarboxylic acid {5-[4-(1,1-dioxo-thiomorpholin-4-ylmethyl)-phenyl]-[1,2,4]triazolo[1,5-a]pyridin-2yl}-amide]
[1]
  [HDL] Mean percentage CFB - 24 weeks results: 4.87%
  [HDL] Median CFB - 24 weeks results: 0.05 mmol/L
[2]
  [HDL] Mean CFB - 24 weeks results: 0.06 mmol/L
  [HDL] Mean percentage CFB - 24 weeks results: 5.57%
  [HDL] Median CFB - 24 weeks results: 0.10 mmol/L
[3]
  [HDL] Mean CFB - 24 weeks results: 0.08 mmol/L
  [HDL] Mean percentage CFB - 24 weeks results: 7.86%
  [HDL] Median CFB - 24 weeks results: 0.06 mmol/L
[4]
  [HDL] Mean CFB - 24 weeks results: 0.08 mmol/L
  [HDL] Mean percentage CFB - 24 weeks results: 6.63%
  [HDL] Median CFB - 24 weeks results: 0.10 mmol/L
[5]
  [HDL] Mean CFB - 24 weeks results: 0.10 mmol/L
  [HDL] Mean percentage CFB - 24 weeks results: 8.81%
  [HDL] Median CFB - 24 weeks results: 0.10 mmol/L
[6]
  [HDL] Mean CFB - 24 weeks results: 0.17 mmol/L
  [HDL] Mean percentage CFB - 24 weeks results: 14.22%
  [HDL] Median CFB - 24 weeks results: 0.15 mmol/L
[7]
  [HDL] Mean CFB - 24 weeks results: 0.12 mmol/L
  [HDL] Mean percentage CFB - 24 weeks results: 9.40%
  [HDL] Median CFB - 24 weeks results: 0.10 mmol/L
[8]
  [HDL] Mean CFB - 24 weeks results: 0.20 mmol/L
  [HDL] Mean percentage CFB - 24 weeks results: 15.20%
  [HDL] Median CFB - 24 weeks results: 0.18 mmol/L
[9]
  [HDL] Mean CFB - 24 weeks results: 0.25 mmol/L
  [HDL] Mean percentage CFB - 24 weeks results: 19.54%
  [HDL] Median CFB - 24 weeks results: 0.25 mmol/L
[10]
  [HDL] Mean CFB - 24 weeks results: 0.26 mmol/L
  [HDL] Mean percentage CFB - 24 weeks results: 21.15%
  [HDL] Median CFB - 24 weeks results: 0.25 mmol/L
[11]
  [HDL] Mean CFB - 24 weeks results: 0.30 mmol/L
  [HDL] Mean percentage CFB - 24 weeks results: 23.14%
  [HDL] Median CFB - 24 weeks results: 0.25 mmol/L
[12]
  [HDL] Mean CFB - 24 weeks results: 0.27 mmol/L
  [HDL] Mean percentage CFB - 24 weeks results: 21.09%
  [HDL] Median CFB - 24 weeks results: 0.28 mmol/L
[13]
  [HDL] Mean CFB - 24 weeks results: 0.28 mmol/L
  [HDL] Mean percentage CFB - 24 weeks results: 21.88%
  [HDL] Median CFB - 24 weeks results: 0.29 mmol/L
[14]
  [HDL] Mean CFB - 24 weeks results: 0.29 mmol/L
  [HDL] Mean percentage CFB - 24 weeks results: 22.68%
  [HDL] Median CFB - 24 weeks results: 0.30 mmol/L
[15]
  [HDL] Mean CFB - 24 weeks results: 0.05 mmol/L
  [HDL] Mean percentage CFB - 24 weeks results: 5.43%
  [HDL] Median CFB - 24 weeks results: 0.06 mmol/L
[16]
  [HDL] Mean CFB - 24 weeks results: 0.07 mmol/L
  [HDL] Mean percentage CFB - 24 weeks results: 7.02%
  [HDL] Median CFB - 24 weeks results: 0.07 mmol/L
[17]
  [HDL] Mean CFB - 24 weeks results: 0.11 mmol/L
  [HDL] Mean percentage CFB - 24 weeks results: 9.40%
  [HDL] Median CFB - 24 weeks results: 0.13 mmol/L
[18]
  [HDL] Mean CFB - 24 weeks results: 0.09 mmol/L
  [HDL] Mean percentage CFB - 24 weeks results: 8.18%
  [HDL] Median CFB - 24 weeks results: 0.11 mmol/L
[19]
  [HDL] Mean CFB - 24 weeks results: 0.10 mmol/L
  [HDL] Mean percentage CFB - 24 weeks results: 8.49%
  [HDL] Median CFB - 24 weeks results: 0.10 mmol/L
[20]
  [HDL] Mean CFB - 24 weeks results: 0.09 mmol/L
  [HDL] Mean percentage CFB - 24 weeks results: 7.94%
  [HDL] Median CFB - 24 weeks results: 0.10 mmol/L
[21]
  [HDL] Mean CFB - 24 weeks results: 0.15 mmol/L
  [HDL] Mean percentage CFB - 24 weeks results: 12.24%
  [HDL] Median CFB - 24 weeks results: 0.14 mmol/L
[22]
  [HDL] Mean CFB - 24 weeks results: 0.15 mmol/L
  [HDL] Mean percentage CFB - 24 weeks results: 12.17%
  [HDL] Median CFB - 24 weeks results: 0.15 mmol/L
[23]
  [HDL] Mean CFB - 24 weeks results: 0.11 mmol/L
  [HDL] Mean percentage CFB - 24 weeks results: 9.42%
  [HDL] Median CFB - 24 weeks results: 0.13 mmol/L
[24]
  [HDL] Mean CFB - 24 weeks results: 0.20 mmol/L
  [HDL] Mean percentage CFB - 24 weeks results: 16.66%
  [HDL] Median CFB - 24 weeks results: 0.20 mmol/L
Continued 200 mg q.d. (N = 86), week 4
  [HDL] Mean CFB - 24 weeks results: 0.24 mmol/L
